Test results published in publication PMC7175131, “Synthesis, In Vitro Evaluation and Molecular Docking of the 5-Acetyl-2-aryl-6-hydroxybenzo[b]furans against Multiple Targets Linked to Type 2 Diabetes” (Biomolecules, 2020).
“And” between values parts separate entries of the source, which are not always exact repeats. Identical values can stand only once. Like-named read-outs stand apart in the source and are kept apart here.

Assays:
PTP1B [1] = target: T1, PTP1B (Homo sapiens, UniProt P18031); assay: PTP1B inhibition assay (pNPP substrate); format: biochemical; details: Hepes buffer pH 7.0, triplicate
T1 construct: purchased Sigma Aldrich, Modderfontein, South Africa
T1 sequence (P18031 1-435): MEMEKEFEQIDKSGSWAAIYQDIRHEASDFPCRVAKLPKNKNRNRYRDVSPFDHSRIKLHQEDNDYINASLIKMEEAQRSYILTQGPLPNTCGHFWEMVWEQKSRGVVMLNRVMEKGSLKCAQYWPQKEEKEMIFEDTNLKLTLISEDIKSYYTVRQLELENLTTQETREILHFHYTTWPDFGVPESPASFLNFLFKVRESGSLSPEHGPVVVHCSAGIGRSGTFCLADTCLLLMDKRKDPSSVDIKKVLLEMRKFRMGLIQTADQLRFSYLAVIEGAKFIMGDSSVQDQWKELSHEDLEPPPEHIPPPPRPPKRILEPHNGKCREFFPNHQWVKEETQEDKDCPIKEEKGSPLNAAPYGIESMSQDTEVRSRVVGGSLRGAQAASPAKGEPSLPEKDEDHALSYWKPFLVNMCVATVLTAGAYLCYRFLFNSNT
Experimental: Activity of PTPase (Sigma Aldrich, Modderfontein, South Africa) was evaluated using p-nitrophenylphosphate (PNPP) as the substrate. […] The reaction was stopped by the addition of 30 μL of 3 M NaOH and absorbance was determined at wavelength of 410 nm. Control tubes without the enzyme were ran in parallel to nullify the nonenzymatic reaction and for calculating the concentration of p-nitrophenolate ions produced in the reaction mixture.

[2] = target: T2, human recombinant β-secretase (Homo sapiens, UniProt P56817); assay: β-secretase (BACE-1) FRET enzyme assay; format: biochemical; details: for IC50: FRET, sodium acetate pH 4.5, 60 min, triplicate
T2 construct: purchased Pan Vera / Thermo Fisher Scientific Corporation; host or cells: baculovirus expression
T2 sequence (P56817 46-501): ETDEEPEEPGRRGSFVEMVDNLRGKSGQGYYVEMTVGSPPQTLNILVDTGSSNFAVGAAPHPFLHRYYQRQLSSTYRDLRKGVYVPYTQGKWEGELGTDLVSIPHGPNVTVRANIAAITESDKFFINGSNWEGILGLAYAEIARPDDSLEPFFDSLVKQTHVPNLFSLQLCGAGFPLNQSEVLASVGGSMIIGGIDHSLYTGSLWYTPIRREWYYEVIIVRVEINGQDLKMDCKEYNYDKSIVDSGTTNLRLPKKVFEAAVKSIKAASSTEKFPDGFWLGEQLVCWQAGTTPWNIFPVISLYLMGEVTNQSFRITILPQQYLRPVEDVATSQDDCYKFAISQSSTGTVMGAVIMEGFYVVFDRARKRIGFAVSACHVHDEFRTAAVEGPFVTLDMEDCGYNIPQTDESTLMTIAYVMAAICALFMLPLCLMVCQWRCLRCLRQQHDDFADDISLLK
Experimental: The assays were conducted in triplicates. […] The percentage inhibition was calculated using the following equation: Inhibition (%)=1–(S –S0)/(C –C0) ×100, where C is the fluorescence of control (enzyme, assay buffer and substrate) after 60 min of incubation, C0 is the fluorescence of control at time 0, S is the fluorescence of tested samples (enzyme, sample solution and substrate) after 60 min. of incubation and S0 the fluorescence of the tested samples at time 0. The IC50 values were calculated with Origin Pro 9.0. (OriginLab Corporation).

α-glucosidase = target: T3, α-glucosidase (Saccharomyces cerevisiae, UniProt P53341); assay: Kinetic studies towards α-glucosidase inhibition (Lineweaver-Burk and Dixon plots); format: biochemical; details: for mode of inhibition of α-glucosidase: Lineweaver-Burk and Dixon plots; for Ki: inhibitor 0.5-20 µM, substrate 0–25 µM, read-out: Ki (Dixon plot), α-glucosidase
T3 construct: purchased Sigma Aldrich (Pty) Ltd
T3 sequence (P53341 whole entry): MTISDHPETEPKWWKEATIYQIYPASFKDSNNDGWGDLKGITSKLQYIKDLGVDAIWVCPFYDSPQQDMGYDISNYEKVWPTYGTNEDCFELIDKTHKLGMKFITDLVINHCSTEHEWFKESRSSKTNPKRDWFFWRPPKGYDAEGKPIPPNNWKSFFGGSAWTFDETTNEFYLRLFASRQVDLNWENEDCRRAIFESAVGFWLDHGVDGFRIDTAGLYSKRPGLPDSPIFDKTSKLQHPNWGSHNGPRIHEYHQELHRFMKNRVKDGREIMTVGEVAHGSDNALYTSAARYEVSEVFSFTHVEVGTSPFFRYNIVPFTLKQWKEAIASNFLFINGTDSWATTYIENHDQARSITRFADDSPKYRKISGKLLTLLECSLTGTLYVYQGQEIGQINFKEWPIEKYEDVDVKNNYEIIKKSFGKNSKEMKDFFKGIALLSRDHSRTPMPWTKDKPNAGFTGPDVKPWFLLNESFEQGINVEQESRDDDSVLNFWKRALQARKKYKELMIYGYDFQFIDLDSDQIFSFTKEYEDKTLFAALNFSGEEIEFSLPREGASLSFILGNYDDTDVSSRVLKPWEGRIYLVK
Experimental: The α-glucosidase inhibitory activity of compounds 2a–h was evaluated in triplicates in a 96 well microplate following a protocol by Shi et al.. […] Then 20 µL of 2 mM PNP-G was added and the absorbances were recorded at a wavelength of 405 nm using Varioskan flash microplate spectrophotometer (Thermo Scientific, Waltham, MA, USA). The IC50 values of these compounds were calculated through the nonlinear regression analysis using Origin Pro 9.0 (OriginLab Corporation, Northampton, MA, USA) and are expressed as the mean standard deviation (SD) of three distinct experiments.
The kinetics studies on compounds 2c and 2h were performed according to the reaction conditions in 2.3.1 with inhibitors of various concentrations (0.5, 5, 10, 20 µM) and the ranges of final substrate concentration were 0–25 µM. The type of inhibition was determined by using Lineweave-Burk plot (the inverse of velocity (1/v) against the inverse of the substrate concentration (1/[S]). The inhibitor constant was obtained by Dixon plot (the inverse of velocity (1/v) against concentration of inhibitor at each substrate concentration).

[3] = DPPH radical scavenging assay; details: DPPH 0.3 mM in methanol, 45 min in the dark, 512 nm
Experimental: Antioxidant activities of compounds 2a–h against ascorbic acid (Sigma Aldrich, Saint Louis, Missouri, USA) as a positive control were evaluated using 2,2-diphenyl-1-picrylhydrazyl (DPPH) radical scavenging assay following a reported method by Zhu et al.. Triplicate solutions of the test compounds and the control in methanol (concentrations ranging from 0 µM to 50 µM) were treated with a solution of DPPH (0.3 mM) in methanol. The mixtures were incubated in the dark for 45 min and the absorbances were recorded at the wavelength of 512 nm using Varioskan flash microplate spectrophotometer reader. The inhibition was calculated in terms of percentage using the formula below, DPPH radical scavenged (%)=AbC − AbS/AbC×100, where AbC is absorbance of control and AbS the absorbance of the test sample. A graph of percentage inhibition of free radical activity was plotted against concentration of the sample.

cyclooxygenase-2 (COX-2) = target: T4, cyclooxygenase-2 (COX-2) (Homo sapiens, UniProt P35354); assay: COX-2 inhibitor screening kit assay; details: COX-2 IC50, means from duplicate runs
T4 sequence (P35354 18-604): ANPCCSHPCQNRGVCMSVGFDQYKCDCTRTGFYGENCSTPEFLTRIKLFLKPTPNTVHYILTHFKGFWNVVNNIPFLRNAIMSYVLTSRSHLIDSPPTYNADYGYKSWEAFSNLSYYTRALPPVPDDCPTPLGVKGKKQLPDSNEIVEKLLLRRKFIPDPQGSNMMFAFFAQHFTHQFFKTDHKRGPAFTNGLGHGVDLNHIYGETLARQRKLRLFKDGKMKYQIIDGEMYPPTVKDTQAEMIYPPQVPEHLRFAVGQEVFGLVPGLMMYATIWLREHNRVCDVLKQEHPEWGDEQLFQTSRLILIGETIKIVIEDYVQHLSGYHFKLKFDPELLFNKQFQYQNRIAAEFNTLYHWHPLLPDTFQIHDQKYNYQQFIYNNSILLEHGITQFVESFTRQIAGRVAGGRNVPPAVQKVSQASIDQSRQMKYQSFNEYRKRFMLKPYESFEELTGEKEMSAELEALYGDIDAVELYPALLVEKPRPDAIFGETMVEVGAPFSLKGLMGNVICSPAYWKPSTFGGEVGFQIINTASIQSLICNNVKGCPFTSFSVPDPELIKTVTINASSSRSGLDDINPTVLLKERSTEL
Experimental: The absorbance was measured using a Varioskan flash microplate spectrophotometer and the IC50 values were calculated with the aid of Origin Pro 9.0.

[4] = target: T5, α-Glucosidase type 1 from baker's yeast (Saccharomyces cerevisiae, UniProt P53341); assay: biochemical; format: biochemical
T5 construct: purchased Sigma Aldrich (Pty) Ltd
T5 sequence (P53341 whole entry): as the sequence (P53341 whole entry) above
Experimental: The IC50 values of these compounds were calculated through the nonlinear regression analysis using Origin Pro 9.0 (OriginLab Corporation, Northampton, MA, USA) and are expressed as the mean standard deviation (SD) of three distinct experiments.

PTP1B [5] = target: T1, PTP1B; assay: Kinetic studies towards PTP1B inhibition (Lineweaver-Burk and Dixon plots); format: biochemical; details: for mode of inhibition of PTP1B: Lineweaver-Burk and Dixon plots; for Ki: inhibitor 0.5-20 µM, substrate 0-25.0 µM, read-out: Ki (Dixon plot), PTP1B
Experimental: The PTP1B inhibitory activity of compounds 2a–h and sodium orthovanadate was evaluated in triplicates in a 96 well microplate following a protocol by Goldstein et al.. Activity of PTPase (Sigma Aldrich, Modderfontein, South Africa) was evaluated using p-nitrophenylphosphate (PNPP) as the substrate. A 10 μL of PTP1B solution (0.02 U/mL) in 50 mM Hepes buffer (pH 7.0) with different concentrations (0.5, 10, 25, 50, 100 μM) of the test compounds and the reference standard were incubated at 25 °C for 10 min. After pre-incubation, 25 μL of HEPES buffer and 25 μL of 2 mM (pNPP) were added and the mixtures were incubated at 37 °C for 30 min. The reaction was stopped by the addition of 30 μL of 3 M NaOH and absorbance was determined at wavelength of 410 nm. Control tubes without the enzyme were ran in parallel to nullify the nonenzymatic reaction and for calculating the concentration of p-nitrophenolate ions produced in the reaction mixture. A molar extinction coefficient of 1.78 ×10^4 M^-1 cm^-1 was used to calculate the concentration of p-nitrophenolate ions produced in the reaction mixture.
Compounds 2c and 2h were subjected to kinetic analysis following the procedure outlined in 2.3.2 with inhibitors of various concentrations (0.5, 5, 10, 20 µM). The assay was performed with substrate of various concentrations (0, 2.5, 6.25, 12.5, 25.0 µM). The absorbance due to the p-nitrophenol produced by dephosphorylation of PTP1B was measured at 405 nm. The kinetic parameters were determined using Lineweaver-Burk double-reciprocal plots and the Dixon the Dixon plot method at increasing substrate and compound concentrations.

[6] = yeast enzyme, PNP-G substrate, pH 6.8, 37 °C, mean ± SD, triplicate, read-out: IC50 α-Glucosidase

Row | IC50 [4, 6] [µM] | Structure (SMILES) | IC50 (PTP1B [1]) [µM] | IC50 [2] [µM] | mode of inhibition of α-glucosidase (α-glucosidase) | Ki (α-glucosidase) [µM] | Vmax, α-glucosidase in presence of inhibitor (α-glucosidase; unchanged with inhibitor concentration) | IC50 [3] | IC50 (cyclooxygenase-2 (COX-2)) | melting point [°C] | mode of inhibition of PTP1B (PTP1B [5]) | Ki (PTP1B [5]) [µM] | IC50 [4] [µM] | activity against β-secretase (in words) [2] | activity against α-glucosidase (in words) ([4]; tested 0–100 μM)
1 |  | CC(=O)c1cc2cc(-c3ccc(Cl)cc3)oc2cc1O [Compound 2e, 1-[2-(4-Chlorophenyl)-6-hydroxybenzofuran-5-yl]ethanone] | 21.5 | > 100 |  |  |  | 11.3 ± 1.2 µM |  | 170 to 173 |  |  | 64.9 ± 0.05 |  | 
2 | > 100 | CC(=O)c1cc2cc(-c3cccc(Cl)c3)oc2cc1O [Compound 2d, 1-[2-(3-Chlorophenyl)-6-hydroxybenzofuran-5-yl]ethanone] | 29.3 | > 100 |  |  |  | 15.5 ± 0.21 µM |  |  |  |  |  |  | 
3 |  | O=C1O[C@H]([C@@H](O)CO)C(O)=C1O [Ascorbic acid, ascorbic acid, reference compound] |  |  |  |  |  | 10.7 ± 0.42 µM |  |  |  |  |  |  | 
4 |  | CC(=O)c1cc2cc(-c3ccc(C)cc3)oc2cc1O [Compound 2f, 1-[6-Hydroxy-2-(4-tolyl)benzofuran-5-yl]ethanone] | 26.7 | > 100 |  |  |  | 26.7 ± 0.62 µM |  | 169 to 172 |  |  | 14.05 ± 0.07 | inactive | 
5 |  | CC(=O)c1cc2cc(-c3ccccc3)oc2cc1O [Compound 2a, 1-[6-Hydroxy-2-phenylbenzofuran-5-yl]ethanone] | 23 ± 0.23 | 63.15 ± 0.07 |  |  |  | 12.2 ± 2.1 µM |  |  |  |  | > 100 |  | No activity
6 | 4.65 ± 0.13 | CC(=O)c1cc2cc(-c3cccc(F)c3)oc2cc1O [Compound 2b, 1-[2-(3-Fluorophenyl)-6-hydroxybenzofuran-5-yl]ethanone] | 24.5 ± 0.29 | > 100 |  |  |  | 46.5 ± 0.24 µM |  |  |  |  |  |  | 
7 | 0.56 ± 0.24 | COc1ccc(-c2cc3cc(C(C)=O)c(O)cc3o2)cc1 [Compound 2g, 1-[6-Hydroxy-2-(4-methoxyphenyl)benzofuran-5-yl]ethanone] | 31.9 | 27.3 ± 1.1 |  |  |  | 16.8 ± 0.38 µM | 2.3 µM and 2.33 µM |  |  |  |  |  | 

Row | Structure (SMILES) | IC50 [4, 6] [µM] | IC50 (PTP1B [1]) [µM] | IC50 [2] [µM] | mode of inhibition of α-glucosidase (α-glucosidase) | Ki (α-glucosidase) [µM] | Vmax, α-glucosidase in presence of inhibitor (α-glucosidase; unchanged with inhibitor concentration) | IC50 [3] | IC50 (cyclooxygenase-2 (COX-2)) | melting point [°C] | mode of inhibition of PTP1B (PTP1B [5]) | Ki (PTP1B [5]) [µM] | IC50 [4] [µM] | activity against β-secretase (in words) [2] | activity against α-glucosidase (in words) ([4]; tested 0–100 μM)
8 | COc1cc(OC)cc(-c2cc3cc(C(C)=O)c(O)cc3o2)c1 [Compound 2h, 1-[6-Hydroxy-2-(3,5-dimethoxyphenyl)benzofuran-5-yl]ethanone] | 0.78 ± 0.31 | 11.9 ± 0.35 | 25.8 ± 0.08 | mixed mode | 5.11 ± 0.42 | 0.19 | 6.28 ± 0.33 µM | 99.6 ± 2.6 µM | 155 to 156 | non-competitive | 0.49 ± 0.01 |  |  | 
9 | CC(=O)c1cc2cc(-c3ccc(F)cc3)oc2cc1O [Compound 2c, 1-[2-(4-Fluorophenyl)-6-hydroxybenzofuran-5-yl]ethanone] | 0.11 ± 0.04 | 17.8 | > 100 | non-competitive | 15.09 ± 0.03 |  | 9.8 µM and 9.82 µM | 2.8 µM and 2.81 µM |  | mixed-type | 5.2 ± 0.1 |  |  | 
